Structures are written as SMILES. Calls of active or inactive are those of the source. How the calls were made is not given here.

The first assay relates to mammalian cell cytotoxicity, viability, CC50. Kind of assay: mammalian cell cytotoxicity, cytotoxicity control, set 3 (AID 504713).
Conditions: not given
By CC50 is commonly meant the concentration at which the toxic effect on the cells reaches its halfway point. On to `O=C(Nc1nc2ccccc2[nH]1)c1cc2cc(Br)ccc2o1`, for which the CC50 is 41.7 µM.
In the case of `CC(Oc1ccc(Cl)cc1)C(=O)Nc1nc2ccccc2s1` (stereo not drawn), the CC50 is 92 µM.
For the compound `Cc1ccc2sc(NC(=O)COc3ccccc3)nc2c1C`, the CC50 was 36.6 µM.
As for `c1ccc(-c2cc(N3CCOCC3)nc3ccccc23)cc1`, the CC50 was 90.8 µM.
On the same count and under the same terms, in the case of `CCOc1ccc2c(c1)c(C(C)=O)c(C)n2-c1ccccc1Cl` it was 85.7 µM; in that of `Cc1ccc2oc(/N=C(\N)NC(=O)c3ccccc3)nc2c1`, 35.1 µM; in that of `O=C(Nc1ccccc1)Nc1csc2ccccc12`, 76.6 µM.

Test system in another assay: not listed separately
The assay is described as above. The note with it: mammalian cell cytotoxicity, viability, CC50; at 100 µM (top of the series).
Usually viability stands for a read-out of living cells in per cent, often relative to untreated cells. `O=C(CSc1n[nH]c(=O)n1C1CC1)c1ccc2c(c1)OCCO2`: the viability was 104% (inactive).
With `COc1cccc(NC(=S)Nc2cc(C)cc(C)n2)c1`, the viability is 100% (inactive).
Turning to `Cc1cc2cc(O)ccc2[nH]1`, the viability was 103% (inactive).
The same measure, in the same setting: in the case of `O=C(COc1cccc2ccccc12)Nc1nc2ccccc2s1` it was 82.9% (inactive).
As to `Cc1ccc(C(C)C)c(OCC(=O)Nc2nc3ccccc3s2)c1`, the viability is 92% (inactive).
Regarding `COc1ccc2nc(NC(=O)c3oc4ccccc4c3C)sc2c1`, the viability was 94.4% (inactive).
In the case of `N/C(=N\c1nc2ccccc2o1)NC(=O)c1ccccc1F`, the viability is 99.9% (inactive).
In the case of `COc1ccc(C(=O)Nc2ccc3nc(N4CCCCC4)cc(C)c3c2)c(OC)c1`, the viability is 96.5% (inactive).
For `COc1ccc2nc(NC(=O)COc3ccc(Cl)cc3)sc2c1`, the viability was 95.2% (inactive).
Turning to `COc1ccc2c(c1)c(C(C)=O)c(C)n2-c1ccccc1`, the viability was 96.1% (inactive).
On the same count and under the same terms, in the case of `Cc1cc2cc(F)ccc2n1-c1ccccc1` it was 93.3% (inactive).
`CC(C)Cn1c2c(c(O)c(C(=O)Nc3nccs3)c1=O)CCCC2`: the viability is 100% (inactive).
`Cc1cccnc1NC(=S)NC(=O)c1cncc(Br)c1`: the viability was 108% (inactive).
Same read-out and setting: in the case of `CCC(CC)c1nnc(NC(=O)c2ccc(N3CCCCC3)c([N+](=O)[O-])c2)s1` it was 96.7% (inactive); in that of `COC(=O)c1c(C)[nH]c2ccc(Cl)cc12`, 80% (inactive).
Turning to `Cc1ccc(OCC(=O)Nc2nnn(C)n2)c(C)c1`, the viability was 103% (inactive).
For `CC(=O)Nc1ccc2nc(NC(=O)COc3ccccc3)sc2c1`, the viability is 96.2% (inactive).
Still for that read-out and setting: in the case of `CCOc1ccc2nc(NC(=O)COc3ccc(OC)cc3)sc2c1` it was 102% (inactive); in that of `O=C(COc1ccccc1Cl)Nc1nc2ccccc2s1`, 92.2% (inactive); in that of `c1ccc(Nc2ncnc3c2oc2ccccc23)cc1`, 88% (inactive).
Turning to `CCOC(=O)c1cnc2cc(-c3ccc(C(C)(C)C)cc3)nn2c1N`, the viability is 94.4% (inactive).
Take `CCOc1ccc2[nH]c(C)cc2c1`: the viability was 93% (inactive).
Turning to `O=C(COC(=O)C1CC1)c1c[nH]c2ccccc12`, the viability was 98.9% (inactive).
As for `CC(=O)c1c(C)n(-c2ccccc2C)c2ccc(O)cc12`, the viability is 95.5% (inactive).
`CCOc1ccc2c(ccn2-c2ccccc2)c1`: the viability was 99.9% (inactive).
Still for that read-out and setting: in the case of `Cc1ccc(OCC(=O)Nc2nc3ccc(F)cc3s2)cc1` it was 103% (inactive); in that of `O=C(CC12CC3CC(CC(C3)C1)C2)NCc1ccc(F)cc1`, 99.1% (inactive).
Consider `CCOc1ccc(NC(=O)COc2ccc(C)cc2C)cc1`, for which the viability was 97.5% (inactive).
Turning to `COc1cccc(-c2ccc(-c3noc(-c4ccccc4F)n3)c(OC)n2)c1`, the viability was 91.7% (inactive).
On to `COc1ccc2nc(NC(=O)COc3c(C)cc(C)cc3C)sc2c1`, for which the viability is 94.5% (inactive).
Still for that read-out and setting: in the case of `CCOc1ccc2[nH]ccc2c1` it was 97.9% (inactive); in that of `O=C(Nc1nc2ccccc2[nH]1)c1ccc(Cl)c(Cl)c1`, 90.6% (inactive).
`O=C(Cc1csc(-c2ccccc2F)n1)Nc1nc2ccccc2[nH]1`: the viability is 105% (inactive).
As to `O=C(COc1ccc(Cl)cc1)Nc1nc2ccc(F)cc2s1`, the viability is 96.1% (inactive).
In the case of `Cc1cccc(C)c1OCC(=O)Nc1nc2ccccc2s1`, the viability is 93.4% (inactive).
Take `CCOc1ccc2[nH]cc(C(=O)OC)c2c1`: the viability is 86.9% (inactive).
For the compound `Cc1ccc(OCC(=O)Nc2ccc(Cl)cc2)c(C)c1`, the viability is 97.9% (inactive).
Still for that read-out and setting: in the case of `Cc1ccccc1OCC(=O)Nc1ncccn1` it was 106% (inactive); in that of `CCOc1ccc2c(c1)c(C(C)=O)c(C)n2Cc1ccco1`, 97.1% (inactive).
`c1ccc(OCc2nnc(-c3ccccc3)o2)cc1`: the viability is 95.4% (inactive).
As to `COC(=O)c1c(C)[nH]c2ccccc12`, the viability is 82.6% (inactive).
Consider `Cc1cc2cc(F)ccc2[nH]1`, for which the viability is 102% (inactive).
Turning to `CCOc1ccc2nc(NC(=O)COc3ccc(Cl)c(C)c3)sc2c1`, the viability is 112% (inactive).
In the case of `Cc1ccc(OCC(=O)Nc2cccc3ccccc23)c(C)c1`, the viability was 93.3% (inactive).
With `CC(=O)c1c(C)n(-c2ccccc2)c2ccc(O)cc12`, the viability was 85% (inactive).
`O=C(COc1ccc2c3c(c(=O)oc2c1)CCC3)Nc1nc2ccccc2[nH]1`: the viability was 97% (inactive).
The same measure, in the same setting: in the case of `CC(=O)c1c(C)n(-c2ccccc2)c2ccc(OS(=O)(=O)C(F)(F)F)cc12` it was 92.2% (inactive).
As to `COC(=O)c1ccc2nc(NC(=O)COc3ccccc3)sc2c1`, the viability is 99.9% (inactive).
In the case of `CCOc1ccc2nc(NC(=O)COc3ccc(F)cc3)sc2c1`, the viability is 103% (inactive).
Consider `COc1cccc(NC(=O)C2CC2)c1`, for which the viability was 90.2% (inactive).
With `CCOC(=O)c1c(C)[nH]c2ccccc12`, the viability was 85.7% (inactive).
For `CCOc1ccc2nc(NC(=O)Cc3ccc(OC)cc3)sc2c1`, the viability was 100% (inactive).
For `COc1ccc2c(c1)cc(C)n2-c1ccccc1`, the viability was 92.9% (inactive).
With `Cc1cc(C)c(OCC(=O)Nc2nc3ccccc3[nH]2)c(C)c1`, the viability is 88.5% (inactive).
On the same count and under the same terms, in the case of `O=C(O)CCC(=O)Nc1nc2ccccc2s1` it was 102% (inactive).
In the case of `CCc1ccc2nc(/N=C(\N)NC(=O)c3ccccc3)nc(C)c2c1`, the viability was 94.8% (inactive).
For `CC(=O)Nc1ccc2nc(NC(=O)Cc3ccccc3)sc2c1`, the viability was 95.1% (inactive).
Same read-out and setting: in the case of `Oc1ccc2[nH]ccc2c1` it was 106% (inactive); in that of `Cc1cc(C)c(OCC(=O)Nc2nc3ccc(C)cc3s2)c(C)c1`, 97.6% (inactive).
Consider `Cc1ccc(OCC(=O)Nc2cccc3ncccc23)c(C)c1`, for which the viability was 92.8% (inactive).
Same read-out and setting: in the case of `CN(NC(=O)c1c(Cl)cccc1Cl)c1cccc(Cl)n1` it was 93.6% (inactive); in that of `CCOc1ccc2nc(NC(=O)COc3ccccc3)sc2c1`, 86% (inactive).
The same measure, in the same setting: in the case of `Cc1cc2ccccc2n1-c1ccccc1` it was 93.4% (inactive).
Turning to `CC(C)(C)c1ccc(OCC(=O)Nc2nc3ccccc3s2)cc1`, the viability is 98.8% (inactive).
With `N/C(=N\c1nc2ccccc2o1)NC(=O)C1CC1`, the viability was 83% (inactive).
Take `CC(=O)c1c(C)n(-c2cccc(Cl)c2)c2ccc(O)cc12`: the viability was 89% (inactive).
For `O=C(OC(C(=O)Nc1ccc(Cl)cc1C(F)(F)F)c1ccccc1)C1=COCCO1` (stereo not drawn), the viability was 84.8% (inactive).
For `Cc1ccc(OCC(=O)Nc2nc3c(Cl)cccc3s2)cc1`, the viability is 108% (inactive).
Take `Cc1cc(C)c(OCC(=O)Nc2nc3ccccc3s2)c(Cl)c1`: the viability was 98.1% (inactive).
Turning to `COc1ccc2[nH]c(C)cc2c1`, the viability was 103% (inactive).
With `Cc1ccccc1OCC(=O)Nc1nnn(C)n1`, the viability is 95.7% (inactive).
As to `O=C(Cc1ccccc1Cl)Nc1nc2ccccc2[nH]1`, the viability is 100% (inactive).
As to `CCOc1ccc2nc(NC(=O)c3cnccn3)sc2c1`, the viability was 80.3% (inactive).
Turning to `N/C(=N\c1nc2ccccc2o1)NC(=O)c1ccccc1Br`, the viability was 87% (inactive).
On to `S=C(Nc1ccccc1)Nc1ccc(Cl)cn1`, for which the viability was 107% (inactive).
Same read-out and setting: in the case of `CCCOc1ccc2c(c1)c(C(C)=O)c(C)n2-c1ccccc1` it was 97.2% (inactive); in that of `Cc1ccccc1OCC(=O)Nc1ncn[nH]1`, 95.4% (inactive); in that of `CCOC(=O)COc1nc(-c2ccc(Cl)cc2)cc(-c2ccco2)c1C#N`, 103% (inactive).
With `COc1ccc2nc(NC(=O)COc3ccccc3)sc2c1`, the viability is 109% (inactive).
Take `Cc1ccc(OC(C)C(=O)Nc2ncccn2)c(C)c1` (stereo not drawn): the viability is 96.2% (inactive).
With `CCCN1CC(O)=C(c2nc3ccccc3s2)C1=N`, the viability was 88.5% (inactive).
Still for that read-out and setting: in the case of `CC(=O)c1c(C)n(-c2ccc(C)cc2)c2ccc(O)cc12` it was 94.9% (inactive); in that of `Cc1ccccc1OCC(=O)Nc1noc(-c2ccccc2)n1`, 100% (inactive); in that of `O=C(COC(=O)C1=COCCO1)Nc1ccc2c(c1)OCO2`, 94.5% (inactive).
Still for that read-out and setting: in the case of `CCOc1ccc2c(c1)cc(C)n2-c1ccccc1` it was 95.5% (inactive); in that of `CC(=O)c1c(C)n(-c2ccccc2)c2ccccc12`, 98.2% (inactive); in that of `Cc1ccc(OCC(=O)Nc2cccc3c(NC(=O)COc4ccc(C)cc4C)cccc23)c(C)c1`, 100% (inactive).
For `Cc1ccc(OCC(=O)Nc2ccc3c4c(cccc24)CC3)c(C)c1`, the viability was 80.3% (inactive).
As to `COc1ccc2nc(NC(=O)COc3ccccc3C(C)C)sc2c1`, the viability was 89.6% (inactive).
As to `Cc1onc(-c2c(Cl)cccc2Cl)c1/C(N)=N/OC(=O)C1CC1`, the viability is 107% (inactive).
Still for that read-out and setting: in the case of `O=C(COc1ccccc1)Nc1nc2ccccc2s1` it was 104% (inactive).

The record behind these values is PubChem BioAssay AID504713 (Southern Research Specialized Biocontainment Screening …, 2011).
